From patent US9573972B2, “Nurotoxic sterol glycosides” (priority 2008, dated 2017)

What was measured:
[1] = system: lumbar spinal cord α- and γ-motor neurons; assay: Motor neuron counts (cresyl violet, Nissl), lumbar spinal cord; format: in vivo, mouse
Protocol: Mice were sacrificed for histological analysis at 35 weeks (35.9-48.6 g) and 52 weeks (41.2-51.4 g) of age. Age-matched control mice from each time point were included for comparison. The mice were deeply anaesthetized in a chamber with 4% isoflurane and perfused intracardially with filtered PBS (pH 7.4) until the effluent was cleared of blood (2 minutes), followed by perfusion with cold (4° C.) 4% paraformaldehyde (PFA) in 0.1 M phosphate buffer (pH 7.4) for 5 minutes (30 mL). The PBS and the PFA were delivered through separate sterile platinum-cured silicon tubing (Cole-Parmer Canada Inc., Montreal, Canada) and peristaltic pumps (MasterFlex peristaltic pump, Cole-Parmer Canada Inc., Montreal, Canada). The brains and spinal cords were dissected out and fixed overnight at 4° C. and equilibrated in increasing concentrations of sucrose in phosphate-buffered saline, pH 7.4 (10, 20, and 25%) over a 3-day period. Complete equilibration of the tissues was taken as the moment the tissues sank to the bottom of the scintillation tubes filled with 25% sucrose. After equilibration, the spinal cord and brain specimens were set in molds (Tissue-tek Cryomold, Sakura Finetek, USA, Torrance, Calif.) with an optimum cutting temperature (OCT) gel-sucrose mixture frozen by immersion in an isopentane (BDH Laboratory Supplies, UK) bath on dry ice and stored at −80° C. until processing.
Cryosectioning of tissue: Frozen, coronal sections (spinal cord: 20 μm, brain: 30 μm) were cut with a Hacker-Bright cryostat (Hacker Instruments and Industries Inc., Winnsboro, S.C.) and mounted on charged glass slides (Superfrost Plus; Fisher Scientific, Pittsburgh, Pa.) so that adjacent CNS sections on each slide represented regions 100 μm and 150 μm apart for spinal cord and brain, respectively (Tabata et al., 2008). The slides were stored at −80° C. until histological processing. To ensure CNS sections were matched between animals, anatomical landmarks were verified using a mouse brain atlas (Paxinos and Franklin, The mouse brain in stereotaxic coordinates: Second Edition, K.B.J., Academic Press, New York, 2001).
Histology and quantification of motor neurons: Spinal cord and brain sections from each animal were stained for Nissl body substance. At room temperature (RT), sections were rinsed in a graded ethanol series (95%:15 min; 70%:1 min; 50%:1 min) to rehydrate and remove lipids and fixation chemicals from the tissue. The tissue were then rinsed for 2 min in two exchanges of distilled water, stained with twice-filtered cresyl violet stain (1.25 g cresyl violet acetate, 0.75 mL glacial acetic acid to 250 mL distilled water), rinsed in distilled water (1 minute), and then dehydrated (50% ethanol: 1 minute; 1% glacial acetic acid-70% ethanol: 2 minutes; 95% ethanol: 2 minutes; 95% ethanol: 3 dips; 100% ethanol: 1 minute) and cleared in xylene. The slides were then cover-slipped in Entellen mountant (Merck, Darmstadt, Germany). The tissue mounted slides were selected with a randomized start and sampled starting from the lumbar 2 region to the 6th. […] The boundaries for the ventral horn was determined by the margins of the gray matter for the lateral, medial and ventral boundaries as well as with the aid of an artificial line drawn laterally through the central canal. Both the left and right ventral horns from 12 sections from each animal were counted. Alpha-motor neurons and γ-motor neurons with and without apoptotic structural changes were counted using strict morphological and size criteria. Non-apoptotic α-neurons were considered as the following: Large, multipolar cells with a round, pale nucleus; visible nucleolus; globular Nissl body staining of the cytoplasm; and a diameter of 30-45 μm. In doing so, astrocytes, oligodendrocytes and microglia were excluded from the “α-motor neuron” counts (Martin, L. J. (1999) J Neuropathol Exp Neurol. 58, 459-71; Sepkuty, J. P., et al. (2002) J Neurosci. 22, 6372-9; Tabata et al., 2008). […]

male CD-1 mice = assay: Open field monitoring, SG-fed mice; format: in vivo, mouse; settings: SG-fed vs control
Excerpt: Five-month old male CD-1 mice (30.1-35.7 g, 7.5 cm-8.8 cm) were purchased from Charles River (Wilmington, Mass.). Adult mice were chosen to mimic the mean age of onset of ALS-PDC (Kurland, L. T. (1988a) Trends Neurosci. 11, 51-4; Kurland, L. T., et al. (1994) Amyotrophic lateral sclerosis-parkinsonism-dementia complex on Guam: epidemiologic and etiological perspectives. 109-131). Thirty mice for the SG study were randomly divided into 2 groups (14 control and 16 experimental animals). All animals were housed singly in a virus-free barrier facility in a room maintained at 22° C. under a 12 hour light/dark cycle. The mice were provided ad libitum access to food and water.
The synthetic SG was mixed with finely ground Purina Chow mouse pellets (Mouse Diet™, Purina) to create the experimental pellets with a SG content of 1000 μg per pellet. Dry materials were blended with a sterile silicon spatula. For every 5 g of standard feed, 2.5 mL of doubly-distilled water (dd)H2O was added and the dough was kneaded and round up into pellets. A single sterol glucoside containing pellet was placed in the feeding tray each morning before the addition of regular mouse chow (ad libitum). All experimental pellets were entirely consumed by the mice each day. Control mice were fed standard mouse chow pellets of identical weight with no additives. SG feeding was conducted daily for 15 weeks and mice were behaviorally monitored until sacrifice at 35 weeks (time point 1) or 52 weeks (time point 2).
Open field monitoring: Spontaneous activity in an open field is considered one of the most standardized general measures of motor function (Crawley, 2000). The open field test can also reveal stress response in animals (i.e. defensive burying or thigmotaxis) (Karl et al., Exp Toxicol Pathol., 2003, 55(1):69-83). Open field testing of each animal was conducted every two weeks. A single mouse was placed in one of four round open field arena/tubs (approximately 1 m diameter) to permit the testing of four animals per 5 minute trial. […] This in turn, increases the likelihood of detection of fear-based behavior (Crawley, 2000) and minimizes habituation of the animal to the open field (Crawley, 2000). Testing arenas were cleaned with 70% ethanol before the testing of each animal and with quatricide at the end of each testing session. Movements were recorded using a video camera mounted on the ceiling. Video clips were reviewed and were manually scored or automatically analysed on an automated video tracking software (Ethovision® 3.1, Noldus Information Technologies Inc., Leesburg, Va., USA). Scoring was done on videotaped sessions, rather than in-person at the time of testing to avoid the introduction of confounding variables by the presence of an observer in close proximity to the mice (Crawley, 2000).

[2] = SG-fed vs control, Time-point 1 (35 wk)
[3] = SG-fed vs control, Time-point 2 (52 wk)
[4] = SG-group over time (35 to 52 wk)

CC[C@H](/C=C/[C@@H](C)[C@H]1CC[C@H]2[C@@H]3CC=C4C[C@@H](O[C@@H]5O[C@H](CO)[C@@H](O)[C@H](O)[C@H]5O)CC[C@]4(C)[C@H]3CC[C@]12C)C(C)C [SG, Stigmasterol β-D-Glucopyranoside]
Chromatolytic α-MN [1, 2]: Chromatolytic α-MN (ns)
Healthy α-MN per lumbar cord section [1, 2]: Healthy α-MN (ns)
Pyknotic α-MN [1, 2]: Pyknotic α-MN (ns)
Total γ-MN [1, 2]: Total γ-MN (ns)
Chromatolytic α-MN [1, 3]: Chromatolytic α-MN (ns)
Pyknotic α-MN [1, 3]: Pyknotic α-MN (ns)
Total γ-MN [1, 3]: Total γ-MN (ns)
Chromatolytic α-MN over time [1, 4]: (control group & SG-group independently over time) (ns)
Pyknotic α-MN over time [1, 4]: (control group and SG-group independently over time) (ns)
Total γ-MN over time [1, 4]: (control group and SG-group independently over time) (ns)
Total distance moved (male CD-1 mice; Time-point 1 (35 wk)): Total distance moved (ns)
Total distance to zone border (male CD-1 mice; Time-point 1 (35 wk)): Total distance to zone border (ns)
Total turn angle (male CD-1 mice; Time-point 1 (35 wk)): Total turn angle (ns)
Total distance to zone border (male CD-1 mice; Time-point 2 (52 wk)): Total distance to zone border* (*p < 0.05)
